The values that follow come from patent US6476032B2, “2,3,4,4a-tetrahydro-1H-pyrazino[1,2-a]quinoxalin-5(6H)one derivatives” (Wyeth, priority 1998, dated 2002).

The structures appear in SMILES notation. Structures can show the parent of a compound that is named as a salt. Where two headings read alike, the source gives them in different places.

For data set [1], the target named is T1, human 5-hydroxy-tryptamine2C (h5HT2C) receptor (Homo sapiens, UniProt P28335).
T1 construct: expressed in transfected cells; host or cells: CHO (Chinese Hamster Ovary) cells; membranes
T1 sequence (P28335 33-458): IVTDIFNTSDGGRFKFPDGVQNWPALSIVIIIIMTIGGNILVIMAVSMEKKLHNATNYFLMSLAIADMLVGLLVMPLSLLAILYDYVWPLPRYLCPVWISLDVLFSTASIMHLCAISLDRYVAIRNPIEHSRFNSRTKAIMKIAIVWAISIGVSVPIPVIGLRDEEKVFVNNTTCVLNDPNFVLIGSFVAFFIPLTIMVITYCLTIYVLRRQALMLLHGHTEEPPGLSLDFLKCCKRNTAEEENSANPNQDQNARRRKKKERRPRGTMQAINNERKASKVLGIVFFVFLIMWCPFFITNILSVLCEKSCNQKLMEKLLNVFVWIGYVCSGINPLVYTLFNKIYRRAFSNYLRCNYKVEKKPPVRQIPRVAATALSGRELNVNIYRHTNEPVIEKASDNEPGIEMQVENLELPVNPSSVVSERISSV
Put plainly: 5HT2C Receptor Binding Test Procedure ([125I] DOI).

For data set [2], the target named is T2, human 5-HT2C receptor (Homo sapiens, UniProt P28335).
T2 construct: expressed in transfected cells; host or cells: CHO cells
T2 sequence (P28335 33-458): T1 sequence (P28335 33-458)
Put plainly: Stimulation of [3H] Inositol Monophosphate Production by 5HT2C Agonists. The format is cell-based.
Procedure: One (1) ml of maintenance medium containing 1 μCi/ml myo-[^3H] inositol was added to each well. After 48 hours labeling, the cells were washed once with 0.5 ml DMEM containing 25 mM HEPES and 10 mM LiCl, then preincubated with the medium for 30 min (antagonists were included in this period if tested). At the end of the preincubation, the medium was removed, the cells were then incubated with test compounds (in presence of antagonists if needed) for 30 min. The reaction was terminated by removal of the incubation solution and addition of 0.5 ml ice-cold 5% PCA, followed by 15 to 30 min incubation on ice. 200 μl of 0.5 M Tes/1.5 M K2CO3 was added to each well to neutralize to pH 7, and plates were left on ice for another 15 to 30 min to precipitate all salts. The liquid and solid phases were separated by centrifugation.
A portion (350 μl) of the upper aqueous phase was applied to Dowex AG-1X8 (formate form, 100-200 mesh) columns. The columns were then washed stepwise with 10 ml of water and 10 ml of 25 mM ammonium formate to remove free myo-[^3H]inositol and deacylated phosphoinositol, respectively. Finally 10 ml of 0.2 M ammonium formate solution was applied to the columns to elute [^3H] inositol monophosphate ([^3H] IP1) directly into scintillation vials. Of this eluate, 1 ml was used to determine radioactivity by scintillation counting.
A 3-parameter logistic function is used to generate estimate of EC50/IC50.

Data set [3] deals with food intake in male Sprague-Dawley rats. Put plainly: Effects of Compounds on Feeding Behavior in Rats (food intake, 24 hr fast). Particulars: Rattus norvegicus, dose giving 50% reduction in food intake. The format is in vivo. Here is the method:
Effects of Compounds on Feeding Behavior in Rats
Eight (8) male Sprague-Dawley rats weighing 150-180 g were separated into individual cages and acclimated to a powdered diet for 2 weeks. During this period and throughout the test procedure, the food cup and the animals were weighed daily. Following the acclimation period, animals were fasted for 24 hours and then injected with either vehicle or one of 4 doses of the test compound. Food intake was assessed at 2 and 24 hours following compound administration. Compounds to be evaluated were injected 1-2× per week until all animals had received all doses of the test compound. The order of doses were chosen using to a modified Latin Square design. Additional studies may be conducted in satiated rats at the start of the dark cycle. Compounds were injected i.p, s.c. or p.o. At the end of the study effects of the test compound on food intake was evaluated using a repeated measures ANOVA. Data were collected were 2 hour food intake (g). Data were subjected to one-way ANOVA with posthoc t-tests to assess group differences. Where appropriate, ED50 values were calculated.

[4] abbreviates: read-out: 5HT2C % Emax (5HT, 100%).
The mark [5] stands for this setting: CHO cells expressing human 5-HT2C, read-out: Stimulation of IP3 (EC50).
The mark [6] stands for this setting: read-out: 5HT2C Affinity DOI/Agonist binding (Ki), [125I] DOI agonist binding.

In the case of `O=C1Nc2ccc(Cl)cc2N2CCNC[C@H]12` (as salt: hydrochloride) [Example 12, (R)-9-Chloro-2,3,4,4a-Tetrahydro-1H-Pyrazino[1,2a]Quinoxalin-5(6H)-One], the melting point (commonly the temperature, or range, at which the solid turns liquid) lay in the range of 146 to 149 °C.

`Clc1cc2c(cc1Cl)N1CCNC[C@@H]1CN2` (single isomer, unassigned) [Example 5, dihydrochloride]: the Ki in data set [1] was found to be 0.007 µM. Further, the EC50 (usually the concentration that produces a half-maximal response) in data set [2] came out at 0.0338 µM. Moreover, in data set [2] (setting [4]), the Emax amounted to 100%.

For the compound `Clc1cc2c(cc1Cl)N1CCNC[C@H]1CN2` (single isomer, unassigned) [Example 6, dihydrochloride], in data set [1], the Ki turned out to be 0.008 µM. In data set [2], this compound yielded an EC50 of 0.0232 µM. The Emax in data set [2] (setting [4]) stood at 77%.

Take `O=C1Nc2cc(Cl)c(Cl)cc2N2CCNCC12` (centres unmarked) [Example 1, 8,9-Dichloro-2,3,4,4a-Tetrahydro-1H-Pyrazino[1,2-a]Quinoxalin-5(6H)-One]: the Ki in data set [1] was determined as 0.00433 µM. For the same compound, the EC50 in data set [2] (setting [5]) came out at 0.012 µM. In data set [2] (setting [4]), the Emax was 108%. Also, the ED50 was 1.91 mg/kg in data set [3] (ip) and 9.73 mg/kg in data set [3] (po).

`O=C1Nc2cc(Cl)c(Cl)cc2N2CCNC[C@H]12` [Example 2, (R)-8,9-Dichloro-2,3,4,4a-Tetrahydro-1H-Pyrazino[1,2-a]Quinoxalin-5(6H)-One] showed a Ki in data set [1] of 0.00418 µM. The half-maximal effective concentration (EC50) in data set [2] (setting [5]) is 0.00792 µM. Further, the Emax in data set [2] (setting [4]) was found to be 112%. Moreover, the ED50 in data set [3] (ip) amounted to 1.99 mg/kg.

Regarding `O=C1Nc2cc(Cl)c(Cl)cc2N2CCNC[C@@H]12` [Example 3, (S)-8,9-Dichloro-2,3,4,4a-Tetrahydro-1H-Pyrazino[1,2-a]Quinoxalin-5(6H)-One], the Ki in data set [1] (setting [6]) was determined as 0.0664 µM. Also, the EC50 in data set [2] (setting [5]) stood at 0.289 µM. Besides, the Emax in data set [2] (setting [4]) amounted to 89%.

Turning to `Clc1cc2c(cc1Cl)N1CCNCC1CN2` (centres unmarked) [Example 4, 8,9-Dichloro-2,3,4,4a,5,6-Hexahydro-1H-Pyrazino[1,2-a]Quinoxaline, dihydrochloride], the Ki in data set [1] (setting [6]) was 0.001 µM. The same compound gave an EC50 in data set [2] of 0.00732 µM. For the same compound, in data set [2] (setting [4]), the Emax came out at 99%.

As to `O=C1Nc2cc(C(F)(F)F)c(Cl)cc2N2CCNCC12` (centres unmarked) [Example 7, 9-Chloro-8-Trifluoromethyl-2,3 4,4a-Tetrahydro-1H-Pyrazino[1,2-a]-Quinoxalin-5(6H)-One, Hydrochloride], the Ki in data set [1] was found to be 0.008 µM. In data set [2] (setting [5]), the EC50 worked out at 0.0973 µM. In data set [2] (setting [4]), the Emax amounted to 100%.

As for `O=C1Nc2cc(C(F)(F)F)c(Cl)cc2N2CCNC[C@@H]12` [Example 8, (S)-9-Chloro-8-Trifluoromethyl-2,3,4,4a-Tetrahydro-1H-Pyrazino[1,2-a]-Quinoxalin-5(6H)-One. Hydrochloride], in data set [1] (setting [6]), the Ki turned out to be 0.516 µM. In addition, in data set [2] (setting [5]), the 50% effective concentration (EC50) came out at 2.61 µM. The Emax in data set [2] (setting [4]) came out at 85%.

With `O=C1Nc2cc(C(F)(F)F)c(Cl)cc2N2CCNC[C@H]12` [Example 9, (R)-9-Chloro-8-Trifluoromethyl-2,3,4,4a-Tetrahydro-1H-Pyrazino[1,2-a]-Quinoxalin-5(6H)-One, Hydrochloride], the Ki in data set [1] (setting [6]) was 0.025 µM. Further, in data set [2] (setting [5]), the EC50 worked out at 0.0188 µM. For the same compound, in data set [2] (setting [4]), the Emax worked out at 100%.

On to `O=C1Nc2ccc(Cl)c(Cl)c2N2CCNCC12` (centres unmarked) [Example 10, 9,10-Dichloro-2,3.4,4a-Tetrahydro-1H-Pyrazino[1,2-a]-Quinoxalin-5(6H)-One, Hydrochloride], for which the Ki in data set [1] was found to be 1.04 µM.

For the compound `Cl.O=C1Nc2c(Cl)cc(Cl)cc2N2CCNCC12` (centres unmarked) [Example 11, 7,9-Dichloro-2,3,4,4A-Tetrahydro-1H-Pyrazino[1,2-a]Quinoxalin-5(6H)-One, Hydrochloride], the Ki in data set [1] (setting [6]) amounted to 0.0198 µM. For the same compound, the Emax in data set [2] (read-out: 5HT2C % Emax (5HT, 100%) at single concentration) came out at 73%. In data set [3] (ip), this compound had an ED50 of 9.99 mg/kg.

In turn, `O=C1Nc2ccc(Cl)cc2N2CCNC[C@H]12` [Example 12, (R)-9-Chloro-2,3,4,4a-Tetrahydro-1H-Pyrazino[1,2a]Quinoxalin-5(6H)-One] returned a Ki in data set [1] of 0.009 µM. The compound further displayed an EC50 in data set [2] of 0.03 µM. Moreover, the Emax in data set [2] (setting [4]) was 95%.

On to `O=C1Nc2cc(F)c(F)cc2N2CCNCC12` (centres unmarked) [Example 13, 8,9-Difluoro-2,3,4,4a-Tetrahydro-1H-Pyrazino[1,2-a]Quinoxalin-5(6H)-One], for which, in data set [1] (setting [6]), the Ki is 0.091 µM.

As to `CSc1ccc2c(c1)C(N1CCN(C)CC1)Cc1ccccc1S2` (centres unmarked) [Methiothepin, reference compound], the Ki in data set [1] (reference compounds, [125I] DOI binding, CHO cell membranes, read-out: Ki value and 95% confidence interval) was found to be 0.0046 µM.

Consider `COc1cc(CC(C)N)c(OC)cc1I` (centres unmarked) [[^125I] DOI, reference compound], for which, in data set [1] (read-out: dissociation constant, KD of [125I] DOI at the human serotonin 5HT2C receptor, saturation binding with increasing concentrations of [125I] DOI), the dissociation constant (Kd) (in general, the free concentration of one partner at which half of the binding sites on the other are occupied at equilibrium, for simple one-to-one binding) was 0.0004 µM.
